Assay results as given in the METLIN SMRT retention time set (Domingo-Almenara et al. 2019).

Assay: gradient 5% acetonitrile 3 min, to 50% in 2 min, to 85% in 15 min, held 3 min, 100 µL/min
Conditions: column: Zorbax Extend-C18 2.1 x 50 mm; eluents: water / acetonitrile, 0.1% formic acid
Outline: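 Retention time was recorded from adduct peaks, which were picked computationally and each inspected manually. Pure standards ran in mixtures of ~100 molecules on HPLC coupled to a quadrupole time-of-flight mass spectrometer, in positive and negative ionization mode, through a Zorbax Extend-C18 column (2.1 × 50 mm, 1.8 μm) at 100 μL/min. Eluents were water and acetonitrile, each with 0.1% formic acid.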

Row | RP-LC retention time [s] | SMILES
1 | 774 | CC(C)c1c(C2CCN(C(=O)c3cc(F)ccc3F)CC2)noc1N
2 | 832 | Cc1noc(C)c1CNC(=O)C(C)Oc1cccc(Cl)c1 (stereo not drawn)
3 | 676 | N=c1nc(N2CCCCC2)cc(N)n1O
4 | 638 | O=C(c1cocn1)N1CC(F)(F)C[C@H]1c1nnc(-c2ccncc2)o1
5 | 762 | COc1ccc(NC(=O)C2CCCN2S(=O)(=O)c2ccc3c(c2)N(C(C)=O)CCO3)cc1 (stereo not drawn)
6 | 784 | CCN1C(=O)c2cccnc2Sc2cc(CNC(=O)c3c(OC)cccc3OC)ccc21
7 | 891 | COc1ccc(C)cc1S(=O)(=O)N1CCCC(c2nnc(COc3ccccc3)o2)C1 (stereo not drawn)
8 | 619 | Fc1ccc(CN2CCCCC2c2nncn2CC2CC2)cc1F (stereo not drawn)
9 | 764 | Cc1nn(CC(=O)NCc2ccco2)c(=O)c2c(C)n(-c3ccccc3)nc12
10 | 1050 | O=C(Nc1ccc(CN2CCCCC2)cc1)C1CCCN(c2ncnc3c2nc2n3CCCCC2)C1 (stereo not drawn)
11 | 873 | CCc1ccc(NC(=O)C2CCCN(S(=O)(=O)c3c[nH]c(C(=O)N4CCCC4)c3)C2)cc1 (stereo not drawn)
12 | 797 | CC(C)(C)c1cc(Br)ccc1OCC(=O)Nc1ncn[nH]1
13 | 814 | CC(C)n1c(N2CCN(C(=O)c3c(F)cccc3F)CC2)cc(=O)n(C(C)C)c1=O
14 | 589 | CCOC(=O)c1cnc2nc(C)ccc2c1Nc1ccc(S(N)(=O)=O)cc1
15 | 807 | COc1cccc(S(=O)(=O)N2CC(F)(F)C[C@H]2CN2CCc3ccccc3C2)c1
16 | 1120 | COc1cccc(-n2nnc(-c3nc(-c4ccccc4OC)cs3)c2N)c1
17 | 937 | O=C(c1ccc2ccccc2n1)N1CCC(Oc2ccccc2)C1 (stereo not drawn)
18 | 692 | CCCC(NC(=O)Cc1cccs1)C(=O)Nc1nc2ccccc2[nH]1 (stereo not drawn)
19 | 1230 | Cc1ccc(S(=O)(=O)N2CCCC2c2nc(-c3ccc(Cl)cc3)no2)cc1F (stereo not drawn)
20 | 740 | CC(C)CCNC(=O)Cn1c(=O)c2cnc(-c3ccc(Cl)cc3)nc2n(C)c1=O
21 | 952 | Cc1ccc(-n2c(=O)c3c(cc(C)n3C)n(CC(=O)Nc3cc(Cl)ccc3C)c2=O)cc1
22 | 583 | COCCNC(=O)Nc1ccc(CCc2nc3ccccc3n2C)cc1

Row | RP-LC retention time [s] | SMILES
23 | 684 | COc1ccc2c(CCNC(=O)c3ccc4c(c3)OCCO4)c[nH]c2c1
24 | 814 | Cc1ccc(CNC(=O)Cn2c(=O)c(CCC(=O)NCC(C)C)nc3ccccc32)cc1
25 | 703 | CNC(=O)Cc1ccc(NS(=O)(=O)Cc2ccc(Cl)cc2)cc1
26 | 569 | CC(CCNC(=O)C1CCN(Cc2cn(C)c3ccc(Cl)cc23)CC1)N1CCCCCC1 (stereo not drawn)
27 | 763 | O=S(=O)(c1c[nH]c2ncccc12)N1CCc2ccccc21
28 | 673 | Cc1nc(-c2noc(-c3ccncc3)n2)cn1CC(=O)N1CCN(c2ccccc2)CC1
29 | 765 | CCOc1ccc(Br)cc1S(=O)(=O)N1CCN(c2nc(C)cc(N(C)C)n2)CC1
30 | 585 | O=C(Cn1c(=O)n(-c2ccccc2)c2ncccc21)NCCN1CCOCC1
31 | 887 | O=c1n(Cc2ccc(F)cc2)nc2c(S(=O)(=O)N3CCCCC3)cccn12
32 | 740 | COc1ccc(C2=NN(S(C)(=O)=O)C(c3ccc4nccnc4c3)C2)c(F)c1 (stereo not drawn)
33 | 799 | CC(=O)Nc1ccc(-c2nc3ccccc3s2)cc1
34 | 598 | O=C(C1CC(=O)N(c2n[nH]c3cccc(F)c23)C1)N1CCN(Cc2ccccc2)CC1 (stereo not drawn)
35 | 645 | CNC(=O)C1CCCN(c2nc3ncn(CC(=O)Nc4cccc(F)c4)c(=O)c3s2)C1 (stereo not drawn)
36 | 1040 | CCOc1ccccc1NC(=O)Nc1ccc2c(c1)CCN2S(=O)(=O)c1ccccc1
37 | 919 | O=C(Cn1cnc2c(sc3nc(-c4ccccc4)ccc32)c1=O)NCc1cccs1
38 | 876 | O=C(NCC12CCC=C1N(CC1CC1)C(=O)CC2)Nc1cccc(F)c1 (stereo not drawn)
39 | 822 | Cc1ccc(C(=O)NCC2CC(=O)N(c3ccc(Cl)cc3)C2)cc1[N+](=O)[O-] (stereo not drawn)
40 | 816 | O=C(CNC(=O)c1ccccc1)NC(C(=O)N1CCCc2ccccc21)c1ccccc1 (stereo not drawn)
41 | 668 | Cn1ccc2cc(S(=O)(=O)N3CCCC(C(=O)NCCCN4CCCCCC4)C3)ccc21 (stereo not drawn)
42 | 948 | CCN1C(=O)SC(CC(=O)O)C1=O (stereo not drawn)
43 | 726 | CCOC(=O)N1CCC2(CC1)N=C(c1ccc(OCC)cc1)CC(c1cc(Cl)ccc1O)N2 (stereo not drawn)
44 | 713 | Cc1ccc(NC(=O)Cn2cc(C(=O)N3CCCC3)c(=O)c3ccc(C)nc32)cc1

Row | RP-LC retention time [s] | SMILES
45 | 649 | O=c1ccn(-c2ccccc2)nc1-c1nc(-c2ccncc2)no1
46 | 677 | CCC(=O)Nc1c(C)noc1/C=C/c1ccc(S(=O)(=O)N2CCN(c3ccccn3)CC2)s1
47 | 1120 | CC1CCN(S(=O)(=O)c2ccc(-c3nnc(C(=O)NC4CCCCC4)o3)cc2)CC1
48 | 778 | O=C(Nc1cnc(N2CCCCCC2)nc1)C1CCC1
49 | 596 | O=C(NCCN1CCOCC1)C1CCN(c2ccc3nnc(-c4ccccc4Cl)n3n2)CC1
50 | 685 | CCCNC(=O)C1CCN(c2ccc(SCC(=O)Nc3ccc(C)c(C)c3)nn2)CC1
51 | 785 | O=C(Nc1ccc(F)cc1F)[C@@H]1OCC(=O)N(C2CC2)[C@H]1c1ccccc1
52 | 680 | CCn1cc(-c2ccc(C)cc2)cc1C(=O)NCCN(C)C
53 | 728 | COc1ccc(NC(=O)Cc2nnc(-c3ccc4ncccc4c3)o2)cc1Cl
54 | 644 | COCc1nc(C2CCN(C(=O)c3ccoc3)C2)no1 (stereo not drawn)
55 | 777 | COc1ccc(NC(=O)C2CCCN(c3ncnc4c3nc3n4CCCCC3)C2)c(OC)c1 (stereo not drawn)
56 | 859 | Cc1c(C(=O)N2CCOCC2)sc2nc(-c3cccc(F)c3)c(NC3CCCC3)n12
57 | 646 | Cc1nc(Nc2ccc(NC(=O)COc3ccc(Cl)cc3)cc2)cc(-n2ccnc2)n1
58 | 670 | Cc1ccc2oc(N3CCN(C(=O)c4ccc(-c5noc(C6CC6)n5)cc4)CC3)nc2n1
59 | 665 | Cc1cccc(C2CC(=O)c3c(C)nc(N4CCN(CCO)CC4)nc3C2)c1 (stereo not drawn)
60 | 868 | O=C(Nc1cccc(-c2nccnc2N2CCOCC2)c1)Nc1ccc(F)c(Cl)c1
61 | 686 | Cc1cc(C)nc(NS(=O)(=O)c2ccc(NC(=O)NC3CCCCC3)cc2)n1
62 | 780 | O=C(CSc1nnc(-c2cccnc2)o1)c1ccc(OC(F)F)cc1
63 | 1350 | Cc1ccc(C)c(-c2csc(NC(=O)c3sc(-c4ccccc4)nc3C)n2)c1
64 | 722 | CCn1c(=O)c(C(=O)NCCN(C)C2CCCCC2)nc2cccnc21
65 | 666 | Cc1ccc(C(=O)NCCc2nc3cccnc3n2C(C)C)cc1
66 | 834 | CC1CCC(NS(=O)(=O)c2ccc3c(c2)c(=O)n(CC(=O)N2CCCC2)c(=O)n3C)CC1 (stereo not drawn)

Row | RP-LC retention time [s] | SMILES
67 | 983 | COc1ccc(NC(=O)CCCSc2ccc(F)cc2)c([N+](=O)[O-])c1
68 | 780 | CCOC(=O)c1c(C)oc(C)c(C(=O)OCC)c1=O
69 | 1210 | O=S(=O)(Nc1ccccc1)c1cccc(-c2nc(-c3ccccc3)no2)c1
70 | 759 | COC(=O)c1c(C)[nH]c(C(=O)N2CCCC(C(=O)NC3CCCCC3)C2)c1C (stereo not drawn)
71 | 851 | COc1ccccc1C(=O)N1CCN(c2ccc(-c3nc(C)c(C)s3)cn2)CC1
72 | 795 | Cc1ccc(NC(=O)N2C[C@H](c3nc(-c4ccncc4)no3)[C@@H](C)C2)cc1
73 | 1140 | Cc1ccc(Oc2nccnc2SCC(=O)Nc2ccc(C)c(C)c2)cc1
74 | 826 | CC(CNC(=O)C1CCN(C(=O)c2ncn3c2COC(c2ccccc2)C3)CC1)c1ccccc1 (stereo not drawn)
75 | 590 | O=C(Nc1nccnc1C(=O)NCc1ccncc1)c1ccccc1
76 | 578 | COc1ccc(NC(=O)c2cnc(N3CCN(C)CC3)nc2N)cc1
77 | 755 | CCCS(=O)(=O)c1nc2ccc(NS(C)(=O)=O)cc2s1
78 | 804 | Cc1[nH]c(C(=O)N2CCCC(C(=O)NCc3ccc4c(c3)OCO4)C2)c(C)c1C (stereo not drawn)
79 | 610 | Cc1nn2c(CNC(=O)c3ccccc3Br)c(C)nc2s1
80 | 635 | CCc1nc2c(c(=O)n1CC(=O)Nc1ccc(OC)cc1)CN(Cc1ccccc1)CC2
81 | 740 | NC(=O)C(c1ccccc1)(c1ccccc1)[C@@H]1CCN(CCc2ccc3c(c2)CCO3)C1
82 | 783 | COCCn1cc(CCNC(=O)Nc2cccc(Br)c2)c2cccnc21
83 | 661 | COc1ccc(N2CCN(C(=O)c3c(C)sc4ccn(C)c(=O)c34)CC2)cc1
84 | 808 | O=C(NCCc1cccs1)C1CCN(C(=O)c2ncn3c2COC(c2ccc(Cl)cc2)C3)CC1 (stereo not drawn)
85 | 849 | Cn1c(=O)n(C)c2cc(Sc3ccccc3)c(NC(=O)C3CC3)cc21
86 | 996 | Cc1cc(C)cc(-n2ccc(=O)c(-c3nc(-c4ccc5c(c4)OCO5)no3)n2)c1

Row | SMILES | RP-LC retention time [s]
87 | CN1C2CCC1CC(OC(=O)c1cc(Cl)cc(Cl)c1)C2 (stereo not drawn) | 669
88 | O=C(c1ccc2ccnc(N3CCN(c4ccc(F)cc4)CC3)c2c1)N1CCC2(CC1)OCCO2 | 724
